Earlier results on one compound are cited in patent publication US11286226B2, “Polycyclic carbogenic molecules and uses thereof as anti-cancer agents” (Northwestern University, priority 2017, dated 2022).

Data set [1] deals with Plasmodium falciparum. The conditions noted are these: reported value (ref. 60); read-out: IC50 against the malaria parasite Plasmodium falciparum; cited from earlier work.
The test system of data set [2] is normal human cells. The conditions noted are these: reported (ref. 60); cited from earlier work.

As for `[C-]#[N+][C@]1(C)[C@H](C)C[C@@H]2C[C@H](C)[C@H]3CC[C@](C)([N+]#[C-])[C@H]4CC[C@H]1[C@@H]2[C@H]34` [Compound 39, (+)-7,20-diisocyanoadociane], the half-maximal inhibitory concentration (IC50) (as a rule, the point on the concentration scale where inhibition reaches its midpoint) in data set [1] is 4.7 nM. For the same compound, the “activity against normal human cells” value in data set [2] is “inert”.
